The target of assay [1] is T1, α5 β1 integrin (UniProt G3HZ55+P08648).
T1 construct: expressed in transfected cells; host or cells: CHO B2/α27
Briefly: Attachment of B2/α27 cells to immobilized GACRRETAWACGA peptide and its inhibition. The assay is classed as cell-based, human. As to conditions: EDTA 10 mM; FIG. 8. An excerpt:
Cell lines expressing fibronectin-binding integrins were used to determine peptide activities against these integrins in the cell attachment assay described by Ruoslahti et al., Meth. Enzymol. 144:803-831 (1982), which is incorporated herein by reference. Human plasma fibronectin was iodinated as described by Morla and Ruoslahti, J. Cell Biol. 118:421-429 (1992), which is incorporated herein by reference. Vitronectin was obtained from Telios Pharmaceuticals (San Diego, Calif.). […] Peptide was coated on plastic by incubating at 37° C. for 2 hr in phosphate buffered saline containing 0.25% glutaraldehyde to crosslink the peptide. Free binding sites on the plastic were blocked using BSA. Approximately 1×10^5 cells per well were allowed to attach for 1 hr in the presence or absence of competing peptides. Bound cells were quantitated by staining with 0.1% amido black.
In addition to the inhibition of cell attachment to natural ligands, attachment and inhibition assays were performed using the […] [SEQ ID NO:3] peptide as substrate. The microtiter well were coated with […] [SEQ ID NO:3] using glutaraldehyde as described above. […] Bound cells were quantitated by staining with 0.1% amido black.

For assay [2], the target named is α5 β1 integrin (Homo sapiens, UniProt P05556+P08648). Briefly: 125I-fibronectin binding assay, competing peptides. As to conditions: microtiter wells coated with α5 β1, 1 hr; FIG. 1; read-out: IC50, inhibition of 125I-fibronectin binding to α5 β1. On the procedure:
The α5 β1 integrin was bound to α5 specific antibody-coated wells by incubating 300 μl of a placental extract per well in TBS buffer containing 0.1M octylglucoside, 1 mM CaCl2, 1 mM MnCl2 and proteinase inhibitors overnight at 4° C., as described by Pytela et al. (1987), supra. Alternatively, the α5β1 integrin was directly coated on plastic as described above. The wells were extensively washed with TBS containing 0.1% NP-40. ^125 I-labeled fibronectin (100,000 cpm per well) was incubated in the presence of competing peptides for 1 hr at 25° C. in 100 μl volume of TBS containing 0.1% NP-40 and 1 mM MnCl2, as described by Koivunen et al. (1993), supra. After repeated washing, the bound radioactivity was quantitated with a gamma counter.
Initially, CRRETAWAC [SEQ ID NO:6] was examined for its ability to inhibit binding of fibronectin, which is the natural ligand for α5 β1. Briefly, ^125 I-fibronectin was incubated for 1 hr in the presence of competing peptides in microtiter wells coated with α5 β1. Following incubation, the wells were washed and bound radioactivity was determined with a gamma counter.

Where a SMILES comes first, the peptide text is derived from it. Bridges are numbered along the chain shown (N, C = ends).

On to `O=C(O)CN(CCN(CC(=O)O)CC(=O)O)CC(=O)O` [EDTA], for which, in assay [1], the “Inhibition of cell attachment to immobilized RRETAWA peptide by EDTA” value was “inhibited”. On to `CC(C)C[C@H](NC(=O)[C@@H]1CSSC[C@H](NC(=O)[C@H](C)NC(=O)CN)C(=O)N[C@@H](CCCNC(=N)N)C(=O)NCC(=O)N[C@@H](CC(=O)O)C(=O)N1)C(=O)NCC(=O)N[C@@H](C)C(=O)O` [CRGDC, GA*CRGDC*LGA] (H-GACRGDCLGA-OH; disulfide 3-7), for which the concentration for half-maximal inhibition (IC50) in assay [2] is about 8 nM. Still for that read-out and setting: next, `C[C@H](NC(=O)CNC(=O)[C@@H]1CSSC[C@H](NC(=O)[C@H](C)NC(=O)CN)C(=O)N[C@@H](CCCNC(=N)N)C(=O)N[C@@H](CCCNC(=N)N)C(=O)N[C@@H](CCC(=O)O)C(=O)N[C@@H]([C@@H](C)O)C(=O)N[C@@H](C)C(=O)N[C@@H](Cc2c[nH]c3ccccc23)C(=O)N[C@@H](C)C(=O)N1)C(=O)O` [CRRETAWAC, GA*CRRETAWAC*GA] (H-GACRRETAWACGA-OH; disulfide 3-11): about 8 nM.

Values taken from patent publication US5627263A, “Integrin-binding peptides” (La Jolla Cancer Research Foundation, priority 1995, dated 1997).
